{"source": "patent US8969312B2", "about": "“Low side effect pharmaceutical composition containing antituberculosis drugs” (priority 2011, dated 2015)", "test_system": "amidase", "assay": "Mouse liver microsomal amidase, isoniazid to isonicotinic acid", "format": "biochemical", "text": "Mouse liver microsomes were used as the source of amidase, and isoniazid was used as the amidase metabolism drugs. quantitative isoniazid was catalyzed into metabolites isonicotinic acid (INA) by amidase, and was used as the index for measurement of the amidase activity for establishment of the platform for screening in vitro amidase activity inhibitors. The HPLC system includes a Shimadzu the LC-LOAD pump, 1 Shimadzu system control and a Shimadzu autosampler (Shimadzu Scientific Instrument, Japan). A C18 column (particle size 5 μm, inner diameter of 50×4.6 mm, 25 cm) containing 70% methanol and 30% ammonium formate (50 mM, pH=2.5) of the mobile phase for HPLC separation, and the experimental steps are outlined as follows:\n(2) An aliquot of 150 μL mouse liver microsomal solution was added to 100 μL isoniazid solution in 35 μL 67 mM potassium phosphate buffer solution ([…], pH=7) with a final concentration at 3 mM, and then mixed thoroughly with 15 μL amidase inhibitor (deionized water was added in the control group). (3) Incubation at 37° C. water bath for 30 minutes. (4) An aliquot of 300 μL acetonitrile (ACN) was added and mixed thoroughly, and incubated for 6 minutes. (5) An aliquot of 30 μL perchloric acid was then mixed and incubated for 6 minutes. (6) The mixture was centrifuged at 13000 g for 6 minutes. (7) After centrifugation, 100 μL of the supernatant was injected into HPLC. (8) Methanol ammonium formate (50 mM, pH=2.5)=70:30 (V/V) was selected as the mobile phase, and the flow rate was controlled at […] and detected at 270 nm UV. […] The amidase inhibition % was then calculated using the following formula: […]", "data": [{"smiles": "COc1cc(-c2cc(=O)c3c(O)cc(O)cc3o2)ccc1O", "note": "[Chrysoeriol]", "values": [{"measurement": "Amidase inhibition", "setting": "1 uM", "result": "7.7 ± 7.1", "unit": "%"}, {"measurement": "Amidase inhibition", "setting": "10 uM", "result": "24.9 ± 11.2", "unit": "%"}, {"measurement": "Amidase inhibition", "setting": "100 uM", "result": "23.2 ± 1.2", "unit": "%"}]}, {"smiles": "O=c1c(O)c(-c2ccccc2)oc2cc(O)cc(O)c12", "note": "[Galangin]", "values": [{"measurement": "Amidase inhibition", "setting": "1 uM", "result": "9.6 ± 9.9", "unit": "%"}, {"measurement": "Amidase inhibition", "setting": "10 uM", "result": "32.8 ± 4.4", "unit": "%"}, {"measurement": "Amidase inhibition", "setting": "100 uM", "result": "61.5 ± 2.7", "unit": "%"}]}, {"smiles": "CC1(C)CC[C@]2(C(=O)O)CC[C@]3(C)C(=CC[C@@H]4[C@@]5(C)CC[C@H](O)C(C)(C)[C@@H]5CC[C@]43C)[C@@H]2C1", "note": "[Oleanolic Acid]", "values": [{"measurement": "Amidase inhibition", "setting": "1 uM", "result": "20.3 ± 5.2", "unit": "%"}, {"measurement": "Amidase inhibition", "setting": "10 uM", "result": "14.8 ± 3.4", "unit": "%"}, {"measurement": "Amidase inhibition", "setting": "100 uM", "result": "24.5 ± 4.0", "unit": "%"}]}, {"smiles": "O=C1C[C@@H](c2ccc(O[C@@H]3O[C@H](CO)[C@@H](O)[C@H](O)[C@H]3O)cc2)Oc2cc(O)ccc21", "note": "[Liquiritin]", "values": [{"measurement": "Amidase inhibition", "setting": "1 uM", "result": "2.5 ± 2.9", "unit": "%"}, {"measurement": "Amidase inhibition", "setting": "10 uM", "result": "−7.5 ± 13.4", "unit": "%"}, {"measurement": "Amidase inhibition", "setting": "100 uM", "result": "12.5 ± 8.3", "unit": "%"}]}, {"smiles": "COc1cc(/C=C/C(=O)CC(=O)/C=C/c2ccc(O)c(OC)c2)ccc1O", "note": "[Curcumin]", "values": [{"measurement": "Amidase inhibition", "setting": "1 uM", "result": "16.9 ± 11.0", "unit": "%"}, {"measurement": "Amidase inhibition", "setting": "10 uM", "result": "16.1 ± 0.4", "unit": "%"}, {"measurement": "Amidase inhibition", "setting": "100 uM", "result": "9.7 ± 6.0", "unit": "%"}]}, {"smiles": "O=c1cc(-c2ccc(O)c(O)c2)oc2cc(O)c([C@@H]3O[C@H](CO)[C@@H](O)[C@H](O)[C@H]3O)c(O)c12", "note": "[Homoorientin]", "values": [{"measurement": "Amidase inhibition", "setting": "1 uM", "result": "7.4 ± 3.8", "unit": "%"}, {"measurement": "Amidase inhibition", "setting": "10 uM", "result": "3.5 ± 0.9", "unit": "%"}, {"measurement": "Amidase inhibition", "setting": "100 uM", "result": "18.0 ± 2.6", "unit": "%"}]}, {"smiles": "CC12CCC(CC1)C(C)(C)O2", "note": "[Cineole]", "values": [{"measurement": "Amidase inhibition", "setting": "1 uM", "result": "−16.5 ± 17.5", "unit": "%"}, {"measurement": "Amidase inhibition", "setting": "10 uM", "result": "−4.7 ± 4.9", "unit": "%"}, {"measurement": "Amidase inhibition", "setting": "100 uM", "result": "22.9 ± 10.4", "unit": "%"}]}, {"smiles": "COc1ccc(-c2cc(=O)c3c(OC)c(OC)c(OC)cc3o2)cc1OC", "note": "[Sinensetin]", "values": [{"measurement": "Amidase inhibition", "setting": "1 uM", "result": "−0.8 ± 3.0", "unit": "%"}, {"measurement": "Amidase inhibition", "setting": "10 uM", "result": "6.6 ± 0.5", "unit": "%"}, {"measurement": "Amidase inhibition", "setting": "100 uM", "result": "9.7 ± 0.9", "unit": "%"}]}, {"smiles": "O=c1cc(-c2ccccc2)oc2c1ccc1ccccc12", "note": "[α-Naphthoflavone]", "values": [{"measurement": "Amidase inhibition", "setting": "1 uM", "result": "7.3 ± 7.9", "unit": "%"}, {"measurement": "Amidase inhibition", "setting": "10 uM", "result": "19.3 ± 3.7", "unit": "%"}, {"measurement": "Amidase inhibition", "setting": "100 uM", "result": "36.9 ± 2.7", "unit": "%"}]}, {"smiles": "CCCCCCCCCCCCO", "note": "[Lauryl Alcohol]", "values": [{"measurement": "Amidase inhibition", "setting": "1 uM", "result": "2.2 ± 3.1", "unit": "%"}, {"measurement": "Amidase inhibition", "setting": "10 uM", "result": "−0.7 ± 1.5", "unit": "%"}, {"measurement": "Amidase inhibition", "setting": "100 uM", "result": "4.1 ± 4.3", "unit": "%"}]}, {"smiles": "O=C(/C=C/c1ccc(O)cc1)c1ccc(O)cc1O", "note": "[Isoliquritigenin]", "values": [{"measurement": "Amidase inhibition", "setting": "1 uM", "result": "−18.7 ± 26.0", "unit": "%"}, {"measurement": "Amidase inhibition", "setting": "10 uM", "result": "17.7 ± 8.3", "unit": "%"}, {"measurement": "Amidase inhibition", "setting": "100 uM", "result": "57.2 ± 8.5", "unit": "%"}]}, {"smiles": "COc1ccc([C@@H]2CC(=O)c3c(O)cc(O[C@@H]4O[C@H](CO)[C@@H](O)[C@H](O)[C@H]4O[C@@H]4O[C@@H](C)[C@H](O)[C@@H](O)[C@H]4O)cc3O2)cc1", "note": "[Poncirin]", "values": [{"measurement": "Amidase inhibition", "setting": "1 uM", "result": "10.8 ± 3.8", "unit": "%"}, {"measurement": "Amidase inhibition", "setting": "10 uM", "result": "8.1 ± 11.7", "unit": "%"}, {"measurement": "Amidase inhibition", "setting": "100 uM", "result": "17.3 ± 5.8", "unit": "%"}]}, {"smiles": "COc1ccc(-c2cc(=O)c3c(O)c(OC)c(OC)cc3o2)cc1O", "note": "[Eupatorin]", "values": [{"measurement": "Amidase inhibition", "setting": "1 uM", "result": "0.9 ± 2.8", "unit": "%"}, {"measurement": "Amidase inhibition", "setting": "10 uM", "result": "7.5 ± 0.7", "unit": "%"}, {"measurement": "Amidase inhibition", "setting": "100 uM", "result": "12.0 ± 7.4", "unit": "%"}]}, {"smiles": "CC1(C)[C@@H](O[C@H]2O[C@H](C(=O)O)[C@@H](O)[C@H](O)[C@H]2O[C@@H]2O[C@H](C(=O)O)[C@@H](O)[C@H](O)[C@H]2O)CC[C@]2(C)[C@H]3C(=O)C=C4[C@@H]5C[C@@](C)(C(=O)O)CC[C@]5(C)CC[C@@]4(C)[C@]3(C)CC[C@@H]12", "note": "[Glycyrrhizin]", "values": [{"measurement": "Amidase inhibition", "setting": "1 uM", "result": "−1.3 ± 3.1", "unit": "%"}, {"measurement": "Amidase inhibition", "setting": "10 uM", "result": "4.3 ± 11.3", "unit": "%"}, {"measurement": "Amidase inhibition", "setting": "100 uM", "result": "24.4 ± 12.7", "unit": "%"}]}, {"smiles": "COc1ccc(-c2cc(=O)c3c(O)cc(O)c(-c4cc(-c5cc(=O)c6c(O)cc(OC)cc6o5)ccc4OC)c3o2)cc1", "note": "[Sciadopitysin]", "values": [{"measurement": "Amidase inhibition", "setting": "1 uM", "result": "10.3 ± 3.8", "unit": "%"}, {"measurement": "Amidase inhibition", "setting": "10 uM", "result": "20.7 ± 6.0", "unit": "%"}, {"measurement": "Amidase inhibition", "setting": "100 uM", "result": "20.6 ± 19.3", "unit": "%"}]}, {"smiles": "O=c1c(-c2ccc(O)cc2)coc2cc(O[C@@H]3O[C@H](CO)[C@@H](O)[C@H](O)[C@H]3O)ccc12", "note": "[Daidzin]", "values": [{"measurement": "Amidase inhibition", "setting": "1 uM", "result": "3.6 ± 3.0", "unit": "%"}, {"measurement": "Amidase inhibition", "setting": "10 uM", "result": "1.1 ± 5.4", "unit": "%"}, {"measurement": "Amidase inhibition", "setting": "100 uM", "result": "7.4 ± 6.3", "unit": "%"}]}, {"smiles": "CC(C)[C@@H](C)/C=C/[C@@H](C)[C@H]1CC[C@H]2C3=CC=C4C[C@@H](O)CC[C@]4(C)[C@H]3CC[C@]12C", "note": "[Ergosterol]", "values": [{"measurement": "Amidase inhibition", "setting": "1 uM", "result": "4.3 ± 10.7", "unit": "%"}, {"measurement": "Amidase inhibition", "setting": "10 uM", "result": "−0.4 ± 10.7", "unit": "%"}, {"measurement": "Amidase inhibition", "setting": "100 uM", "result": "0.4 ± 3.6", "unit": "%"}]}]}
